Our source for the EC50 and EC90 values is ChEMBL document CHEMBL5441381, “ASAP - In vitro antiviral effect” (2024).

A value given as a limit tells only on which side of the number the result lay.

Test [1] deals with SARS-CoV-2. Briefly: (§1) Functional immunofluorescence assay to measure dose dependent changes in antiviral-drug inhibitory efficacy against hCoV-19/USA-WA1/2020 in HeLa-ACE2 cells which are seeded prior to drug treatment, then infected with hCoV-19/USA-WA1/2020. Cells are fixed with 10 % formaldehyde, washed with PBS, permeabilized with permeabilization buffer, then washed with wash buffer. The cells are incubated with nucleoprotein primary antibody IC7C7. Following primary staining, cells are washed with wash buffer and incubated in a solution of with Alexa fluor 488 and DAPI. Infected and uninfected cells are visualized and analyzed by Gen5 software. The assay has been performed by Icahn School of Medicine at Mount Sinai. Format: organism-based, Homo sapiens.

Test [2] concerns SARS-CoV-2. The test is described as §1, with “iPSC-Pneumocyte” for “HeLa-ACE2”, “to” for “to drug”. Format: organism-based, Homo sapiens. Conditions: Severe acute respiratory syndrome coronavirus 2, Pneumocyte.
Setting [3] is: Severe acute respiratory syndrome coronavirus 2, HeLa-ACE2.

Usually EC50 stands for the concentration that produces a half-maximal response. By EC90 is commonly meant the point of the concentration-response curve where the effect stands at 90%. Higher therefore signals weaker potency. As for `CNC(=O)c1cc2c(N[C@@H](c3ccc4c(c3)OCCO4)C(C)C)ncnc2[nH]1`, the EC50 in the test on SARS-CoV-2 [1] (setting [3]) and with SARS-CoV-2 [2] was over 50 µM in each case. For the same molecule, the 90% effect concentration (EC90) with SARS-CoV-2 [1] (Severe acute respiratory syndrome coronavirus 2, HeLa-ACE2, Baseline response 0 %, Hill slope -1.825, Maximum measured 114.293 %, Maximum response 100 %, Minimum measured 64.264 %, R squared 0.688) was over 50 µM; in the test on SARS-CoV-2 [2] (Maximum measured 153.61 %, Minimum measured 91.144 %) it was over 50 µM.
Turning to `CC(C)[C@@H](Nc1ncnc2[nH]c(-c3cnn(C)c3C#N)cc12)c1ccc2c(c1)S(=O)(=O)CCC2`, the EC50 was determined as 3.51 µM with SARS-CoV-2 [1] (setting [3]) and 0.411 µM with SARS-CoV-2 [2]. The EC90 was 13.2 µM in the test on SARS-CoV-2 [1] (Severe acute respiratory syndrome coronavirus 2, HeLa-ACE2, Baseline response 0 %, EC90 CI (lower) 0.517 uM, EC90 CI (upper) 1.693 uM, Hill slope -1.661, Maximum measured 114.163 %, Maximum response 100 %, Minimum measured 4.545 %, R squared 0.935) and 13 µM with SARS-CoV-2 [2] (Baseline response 0 %, EC90 CI (lower) 0.002 uM, EC90 CI (upper) 0.075 uM, Hill slope -0.637, Maximum measured 75.192 %, Maximum response 100 %, Minimum measured 0.111 %, R squared 0.781).
Consider `CC(C)(C)[C@@H](Nc1ncnc2[nH]c(-c3cnn(CC(N)=O)c3)cc12)c1ccc2c(n1)OCCO2`, for which the EC50 was over 20 µM with SARS-CoV-2 [1] (setting [3]) and 11.4 µM with SARS-CoV-2 [2]. In addition, the EC90 is over 20 µM in the test with SARS-CoV-2 [1] (Severe acute respiratory syndrome coronavirus 2, HeLa-ACE2, Maximum measured 115.43 %, Minimum measured 93.464 %) and over 50 µM with SARS-CoV-2 [2] (Baseline response 0 %, Hill slope -0.772, Maximum measured 91.919 %, Maximum response 100 %, Minimum measured 11.328 %, R squared 0.786).
Regarding `CC(C)[C@H](Nc1ncnc2[nH]c(-c3cnn(CC(N)=O)c3)cc12)c1ccc2c(c1)S(=O)(=O)CCC2`, the EC50 in the test with SARS-CoV-2 [1] (setting [3]) is over 20 µM; in the test on SARS-CoV-2 [2], over 50 µM. For the same molecule, the EC90 is over 20 µM with SARS-CoV-2 [1] (Severe acute respiratory syndrome coronavirus 2, HeLa-ACE2, Baseline response 0 %, Hill slope 1.066, Maximum measured 108.399 %, Maximum response 100 %, Minimum measured 92.21 %, R squared 0.046) and over 50 µM in the test with SARS-CoV-2 [2] (Baseline response 0 %, Hill slope -0.706, Maximum measured 119.318 %, Maximum response 100 %, Minimum measured 70.174 %, R squared 0.133).
`CC(C)[C@@H](Nc1ncnc2[nH]ccc12)c1ccc2c(c1)NC(=O)CO2`: the EC50 with SARS-CoV-2 [1] (setting [3]) and in the test on SARS-CoV-2 [2] was over 50 µM throughout. For the same molecule, the EC90 with SARS-CoV-2 [1] (Severe acute respiratory syndrome coronavirus 2, HeLa-ACE2, Baseline response 0 %, Hill slope -2.239, Maximum measured 123.573 %, Maximum response 100 %, Minimum measured 69.199 %, R squared 0.469) was over 50 µM; with SARS-CoV-2 [2] (Maximum measured 145.289 %, Minimum measured 92.172 %), over 50 µM.
Consider `CC(C)[C@@H](Nc1ncnc2[nH]c(C(=O)N[C@H]3CCN(C)C3)cc12)c1ccc2c(c1)S(=O)(=O)CCC2`, for which the EC50 is over 20 µM in the test on SARS-CoV-2 [1] (setting [3]) and over 50 µM with SARS-CoV-2 [2]. The EC90 is over 20 µM in the test on SARS-CoV-2 [1] (Severe acute respiratory syndrome coronavirus 2, HeLa-ACE2, Baseline response 0 %, Hill slope -0.107, Maximum measured 102.123 %, Maximum response 100 %, Minimum measured 84.181 %, R squared 0.016) and over 50 µM with SARS-CoV-2 [2] (Baseline response 0 %, Hill slope -0.859, Maximum measured 114.501 %, Maximum response 100 %, Minimum measured 59.767 %, R squared 0.551).
As to `CC(C)[C@@H](Nc1ncnc2[nH]c(C(N)=O)cc12)c1ccc2c(c1)OCCO2`, the EC50 with SARS-CoV-2 [1] (setting [3]) was over 20 µM; in the test with SARS-CoV-2 [2], over 50 µM. Moreover, the EC90 with SARS-CoV-2 [1] (Severe acute respiratory syndrome coronavirus 2, HeLa-ACE2, Maximum measured 95.443 %, Minimum measured 3.395 %) was over 20 µM; in the test on SARS-CoV-2 [1] (Severe acute respiratory syndrome coronavirus 2, HeLa-ACE2, Maximum measured 108.483 %, Minimum measured 88.736 %) it was over 20 µM; in the test with SARS-CoV-2 [2] (Baseline response 0 %, Hill slope -3.392, Maximum measured 162.718 %, Maximum response 100 %, Minimum measured 51.066 %, R squared 0.094), over 50 µM.
